Experiment [1] has as its target T1, hM2 receptor (CHO-K1 cells) (Homo sapiens, UniProt P08172).
T1 construct: expressed in transfected cells; host or cells: CHO-K1 cells
T1 sequence (P08172 1-466): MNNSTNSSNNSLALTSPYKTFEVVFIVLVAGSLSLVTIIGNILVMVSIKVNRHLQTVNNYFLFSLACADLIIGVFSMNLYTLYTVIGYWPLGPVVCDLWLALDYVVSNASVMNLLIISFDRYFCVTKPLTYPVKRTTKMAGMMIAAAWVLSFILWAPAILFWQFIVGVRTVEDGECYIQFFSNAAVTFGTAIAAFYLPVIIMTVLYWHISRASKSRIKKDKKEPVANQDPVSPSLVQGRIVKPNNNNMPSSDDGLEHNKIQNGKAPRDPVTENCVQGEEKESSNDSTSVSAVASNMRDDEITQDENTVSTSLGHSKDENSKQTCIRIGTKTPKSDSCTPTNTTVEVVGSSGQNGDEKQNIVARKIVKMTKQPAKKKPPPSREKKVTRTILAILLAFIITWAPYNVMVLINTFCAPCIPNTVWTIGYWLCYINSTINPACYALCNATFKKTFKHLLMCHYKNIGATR
The experiment is described as follows: Blockade of agonist-mediated [35S]GTPγS binding. It counts as biochemical. To be noted: CHO-K1 cells expressing the hM2 receptor; this or a similar assay; read-out: Ki value for blockade of oxotremorine-stimulated [35S]GTPγS binding. On the procedure:
In a second functional assay, the functional potency of test compounds can be determined by measuring the ability of the compounds to block oxotremorine-stimulated [^35S]GTPγS binding in CHO-K1 cells expressing the hM2 receptor.
At the time of use, frozen membranes were thawed and then diluted in assay buffer with a final target tissue concentration of 5-10 μg protein per well. The membranes were briefly homogenized using a Polytron PT-2100 tissue disrupter and then added to the assay plates. The EC90 value (effective concentration for 90% maximal response) for stimulation of [^35S]GTPγS binding by the agonist oxotremorine was determined in each experiment.
The assay plates were then incubated at 37° C. for 60 minutes. The assay plates were filtered over 1% BSA-pretreated GF/B filters using a PerkinElmer 96-well harvester. The plates were rinsed with ice-cold wash buffer for 3×3 seconds and then air or vacuum dried. Microscint-20 scintillation liquid (50 μL) was added to each well, and each plate was sealed and radioactivity counted on a topcounter (PerkinElmer). Data were analyzed by nonlinear regression analysis with the GraphPad Prism Software package (GraphPad Software, Inc., San Diego, Calif.) using the non-linear regression, one-site competition equation. […]
In general terms: Binding of GTPγS marks nucleotide exchange on a G protein.

Another experiment addresses T2, hM3 receptor (CHO cells) (Homo sapiens, UniProt P20309).
T2 construct: expressed in transfected cells
The experiment is described as follows: Blockade of agonist-mediated calcium release via FLIPR. It is filed as cell-based. Particulars: CHO cells stably expressing the hM3 receptor, this or a similar assay. The text has this:
Muscarinic receptor subtypes (M1, M3 and M5 receptors), which couple to Gq proteins, activate the phospholipase C (PLC) pathway upon agonist binding to the receptor. As a result, activated PLC hydrolyzes phosphatyl inositol diphosphate (PIP2) to diacylglycerol (DAG) and […] (IP3), which in turn generates calcium release from intracellular stores, i.e., endoplasmic and sarcoplasmic reticulum. The FLIPR (Molecular Devices, Sunnyvale, Calif.) assay capitalizes on this increase in intracellular calcium by using a calcium sensitive dye (Fluo-4AM, Molecular Probes, Eugene, Oreg.) that fluoresces when free calcium binds. This fluorescence event was measured in real time by the FLIPR, which detected the change in fluorescence from a monolayer of cells cloned with human M1 and M3, and chimpanzee M5 receptors. Antagonist potency was determined by the ability of antagonists to inhibit agonist-mediated increases in intracellular calcium.
For FLIPR calcium stimulation assays, CHO cells stably expressing the hM1, hM3 and cM5 receptors were seeded into 96-well FLIPR plates the night before the assay was done. […]
To determine antagonist potency, the dose-dependent stimulation of intracellular Ca^2+ release for oxotremorine was first determined so that antagonist potency can later be measured against oxotremorine stimulation at an EC90 concentration. […]

Consider 1 compound from patent publication US20060205949A1, “Crystalline forms of a biphenyl compound” (THERAVANCE, INC., priority 2005, published 2006).

Structures are written as SMILES. pKi: −log10 of the molar value.

T2 sequence (P20309 whole entry): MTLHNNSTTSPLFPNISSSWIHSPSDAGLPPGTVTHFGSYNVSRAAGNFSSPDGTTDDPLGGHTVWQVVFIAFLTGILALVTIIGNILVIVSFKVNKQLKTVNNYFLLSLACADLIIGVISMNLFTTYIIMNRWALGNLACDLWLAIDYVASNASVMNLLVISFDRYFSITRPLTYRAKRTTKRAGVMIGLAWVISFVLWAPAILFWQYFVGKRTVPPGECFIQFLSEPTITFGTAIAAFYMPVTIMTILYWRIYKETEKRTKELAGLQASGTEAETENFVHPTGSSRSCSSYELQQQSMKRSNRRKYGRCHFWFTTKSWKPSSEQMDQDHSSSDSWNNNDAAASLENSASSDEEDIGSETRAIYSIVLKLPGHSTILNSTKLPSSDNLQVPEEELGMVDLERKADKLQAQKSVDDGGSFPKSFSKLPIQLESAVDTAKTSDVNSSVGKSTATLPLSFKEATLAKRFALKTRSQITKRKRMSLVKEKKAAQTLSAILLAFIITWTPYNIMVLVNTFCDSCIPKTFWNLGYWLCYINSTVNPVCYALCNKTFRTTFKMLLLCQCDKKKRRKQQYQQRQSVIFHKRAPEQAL

The term pKi denotes −log10 of the Ki, conventionally taken in molar units. For `O=C(CCN1CCC(OC(=O)Nc2ccccc2-c2ccccc2)CC1)NCCCCCNCc1ccc(O)cc1` [compound of formula I, biphenyl-2-ylcarbamic acid 1-{2-[5-(4-hydroxybenzylamino)pentylcarbamoyl]ethyl}piperidin-4-yl ester], the pKi (in experiment [1]; on hM3 receptor (CHO cells)) was over 8.00 each time.
